Measurements taken from patent publication US6538106B1, “Compositions and methods for treating infections using analogues of indolicidin” (priority 1996, dated 2003).
“And” between values parts separate entries of the source, which are not always exact repeats. Equal values may be shown once. Read-outs that look alike come from different tables or passages of the source.

Columns and labels:
Format in all cases: cell-based
S. aureus = assay: Synergy assay (agarose dilution, FIC); conditions: for Mupirocin Comb. MIC: MIC of Mupirocin in combination with the peptide; for Peptide Comb. MIC: MIC of peptide in combination with Mupirocin; for Peptide MIC: peptide alone; for Ciprofloxacin Comb. MIC: MIC of Ciprofloxacin in combination with the peptide; for Peptide Comb MIC: MIC of peptide in combination with Ciprofloxacin
Description: (§1) Briefly, one assay for in vitro anti-bacterial activity, the agarose dilution assay, is set up with an array of plates that each contain a combination of peptide analogue and antibiotic in various concentrations. The plates are inoculated with bacterial isolates, incubated, and the MICs of the components recorded. […] Antibiotics used in testing include, but are not limited to, penicillins, cephalosporins, carbacephems, cephamycins, carbapenems, monobactams, aminoglycosides, glycopeptides, quinolones, tetracyclines, macrolides, and fluoroquinolones (see Table 1 below).
(§2) Synergy is calculated according to the formula below. An FIC of ≦0.5 is evidence of synergy, although combinations with higher values may be therapeutically useful. [formula]
Synergy is assayed using the agarose dilution technique, where an array of plates, each containing a combination of peptide and antibiotic in a unique concentration mix, is inoculated with the bacterial isolates. Synergy is investigated for peptide analogues in combination with a number of conventional antibiotics including, but not limited to, penicillins, cephalosporins, carbapenems, monobactams, aminoglycosides, macrolides, fluoroquinolones.
(§3) Synergy is expressed as a Fractional Inhibitory Concentration (FIC), which is calculated according to the equation below. An FIC of less than or equal to 0.5 is evidence of synergy, although combinations with higher values may be therapeutically useful. [formula]

P. vulgaris = assay: Synergy assay (agarose dilution, FIC); conditions: P. vulgaris SBPV1; for Mupirocin Comb. MIC: MIC of Mupirocin in combination with the peptide; for Peptide Comb. MIC: MIC of peptide in combination with Mupirocin; for FIC: peptide + Mupirocin; for Peptide MIC: peptide alone
Description: as §1, §2
(§4) Treatment with a combination of peptide analogues and conventional antibiotics can have a synergistic effect. Synergy is assayed using the agarose dilution technique, where an array of plates, each containing a combination of peptide and antibiotic in a unique concentration mix, is inoculated with the bacterial isolates. Synergy is investigated for peptide analogues in combination with a number of conventional antibiotics including, but not limited to, penicillins, cephalosporins, carbapenems, monobactams, aminoglycosides, macrolides, fluoroquinolones.
as §3

E. faecalis = assay: Synergy assay (agarose dilution, FIC); conditions: E. faecalis EFS8; for Mupirocin Comb. MIC: MIC of Mupirocin in combination with the peptide; for Peptide Comb. MIC: MIC of peptide in combination with Mupirocin; for FIC: peptide + Mupirocin; for Peptide MIC: peptide alone
Description: as §1, §2, §4, §3

P. aeruginosa = assay: Synergy assay (agarose dilution, FIC); conditions: for Mupirocin Comb. MIC: MIC of Mupirocin in combination with the peptide; for Peptide Comb. MIC: MIC of peptide in combination with Mupirocin
Description: as §1, §2, §4, §3

S. epidermidis = assay: Broth dilution assay (MIC); conditions: S. epidermidis SE005
Description: This assay also uses calcium and magnesium supplemented Mueller Hinton broth as the growth medium. Typically 100 μl of broth is dispensed into each well of a 96-well microtitre plate and 100 μl volumes of two-fold serial dilutions of the peptide analogue are made across the plate. One row of wells receives no peptide and is used as a growth control. Each well is inoculated with approximately 5×10^5 CFU of bacteria and the plate is incubated at 35-37° C. for 16-20 hours.
For example, MIC values were established for a series of peptide analogues against S. aureus strains.

E. coli = assay: Synergy assay (agarose dilution, FIC); conditions: for Mupirocin Comb. MIC: MIC of Mupirocin in combination with the peptide; for Peptide Comb. MIC: MIC of peptide in combination with Mupirocin; for FIC: peptide + Mupirocin; for Peptide MIC: peptide alone
Description: as §1, §2, §4, §3

S. marcescens = assay: Synergy assay (agarose dilution, FIC); conditions: for Mupirocin Comb. MIC: MIC of Mupirocin in combination with the peptide; for Peptide Comb. MIC: MIC of peptide in combination with Mupirocin; for FIC: peptide + Mupirocin; for Peptide MIC: peptide alone
Description: as §1, §2, §4, §3

bacteria = system: bacteria
[1] = S. aureus SBSA3, peptide + Mupirocin
[2] = P. aeruginosa PA3, peptide + Mupirocin
[3] = S. aureus SBSA4, peptide + Mupirocin

C/C(=C\C(=O)OCCCCCCCCC(=O)O)C[C@@H]1OC[C@H](C[C@@H]2O[C@H]2[C@@H](C)[C@H](C)O)[C@@H](O)[C@H]1O [Mupirocin, reference compound]
MIC (S. aureus; Staphylococcus aureus, S. aureus SBSA5, Mupirocin alone): 30 mg/L
MIC (P. vulgaris; Proteus vulgaris, Mupirocin alone): 3 mg/L
MIC (E. faecalis; Enterococcus faecalis, Mupirocin alone): 100 mg/L
Mupirocin MIC (P. aeruginosa; P. aeruginosa PA24, Mupirocin alone): >100 mg/L

I L K K F P F F P F R R K [MBI 11A1CN]
MIC (S. epidermidis): 16 mg/L
Mupirocin Comb. MIC (S. aureus; S. aureus SBSA3): 100 mg/L
Peptide Comb. MIC (S. aureus; S. aureus SBSA3): >128 mg/L
FIC (S. aureus; [1]): 2
Mupirocin Comb. MIC (S. aureus; S. aureus SBSA5): 10 mg/L
Peptide Comb. MIC (S. aureus; S. aureus SBSA5): 32 mg/L
FIC (S. aureus; S. aureus SBSA5, peptide + Mupirocin): 0.58
Mupirocin Comb. MIC (E. faecalis): 100 mg/L
Peptide Comb. MIC (E. faecalis): >128 mg/L
FIC (E. faecalis): 2
Mupirocin Comb. MIC (P. aeruginosa; P. aeruginosa PA3): >100 mg/L
Peptide Comb. MIC (P. aeruginosa; P. aeruginosa PA3): >128 mg/L
FIC (P. aeruginosa; [2]): 2
Mupirocin Comb. MIC (E. coli; E. coli ECO1): 10 mg/L
Peptide Comb. MIC (E. coli; E. coli ECO1): 4 mg/L
FIC (E. coli; E. coli ECO1): 0.14
Mupirocin Comb. MIC (S. marcescens; S. marcescens SBSM1): >100 mg/L
Peptide Comb. MIC (S. marcescens; S. marcescens SBSM1): >128 mg/L
FIC (S. marcescens; S. marcescens SBSM1): 2

I L K K W P W W P W K [MBI 11G13CN]
Mupirocin Comb. MIC (S. aureus; S. aureus SBSA3): 100 mg/L
Peptide Comb. MIC (S. aureus; S. aureus SBSA3): 64 mg/L
FIC (S. aureus; [1]): 2
Peptide MIC (S. aureus; S. aureus SBSA3): 64 mg/L
Mupirocin Comb. MIC (P. vulgaris): 3 mg/L
Peptide Comb. MIC (P. vulgaris): >128 mg/L and 64 mg/L
FIC (P. vulgaris): 2 and 1.25
Peptide MIC (P. vulgaris): >128 mg/L
Mupirocin Comb. MIC (E. coli; E. coli ECO5): 30 mg/L
Peptide Comb. MIC (E. coli; E. coli ECO5): 8 mg/L
FIC (E. coli; E. coli ECO5): 0.43
Peptide MIC (E. coli; E. coli ECO5): 64 mg/L
Mupirocin Comb. MIC (S. marcescens; S. marcescens SBSM1): >100 mg/L
Peptide Comb. MIC (S. marcescens; S. marcescens SBSM1): >128 mg/L
FIC (S. marcescens; S. marcescens SBSM1): 2
Peptide MIC (S. marcescens; S. marcescens SBSM1): >128 mg/L

I L K K W P W W P W R K [MBI 11B4CN]
Mupirocin Comb. MIC (S. aureus; S. aureus SBSA3): 10 mg/L
Peptide Comb. MIC (S. aureus; S. aureus SBSA3): 16 mg/L
FIC (S. aureus; [1]): 0.60
Peptide MIC (S. aureus; S. aureus SBSA3): 32 mg/L
Mupirocin Comb. MIC (S. aureus; S. aureus SBSA4): >100 mg/L
Peptide Comb. MIC (S. aureus; S. aureus SBSA4): 8 mg/L
FIC (S. aureus; [3]): 2
Peptide MIC (S. aureus; S. aureus SBSA4): 8 mg/L
Mupirocin Comb. MIC (E. faecalis): 100 mg/L
Peptide Comb. MIC (E. faecalis): 64 mg/L
FIC (E. faecalis): 2
Peptide MIC (E. faecalis): 64 mg/L
Mupirocin Comb. MIC (E. coli; E. coli ECO1): 10 mg/L
Peptide Comb. MIC (E. coli; E. coli ECO1): 4 mg/L
FIC (E. coli; E. coli ECO1): 0.26
Peptide MIC (E. coli; E. coli ECO1): 16 mg/L
Mupirocin Comb. MIC (S. marcescens; S. marcescens SBSM1): >100 mg/L
Peptide Comb. MIC (S. marcescens; S. marcescens SBSM1): >128 mg/L
FIC (S. marcescens; S. marcescens SBSM1): 2
Peptide MIC (S. marcescens; S. marcescens SBSM1): >128 mg/L

I L K K W P W W P W R R K [MBI 11CAN]
MIC (bacteria; A. calcoaceticus AC002, listed as MBI 11ACN): 2 mg/L
MIC (bacteria; E. coli ECO005, listed as MBI 11ACN): 16 mg/L
MIC (bacteria; E. faecalis EFS004, listed as MBI 11ACN): 8 mg/L
MIC (bacteria; K. pneumoniae KP001, listed as MBI 11ACN): 16 mg/L
MIC (bacteria; S. epidermidis SE010, listed as MBI 11ACN): 4 mg/L
MIC (bacteria; S. maltophilia SMA002, listed as MBI 11ACN): 64 mg/L

I L K K Y P Y Y P Y R R K [MBI 11A3CN]
Mupirocin Comb. MIC (S. aureus; S. aureus SBSA2): >100 mg/L
Peptide Comb. MIC (S. aureus; S. aureus SBSA2): 128 mg/L
FIC (S. aureus; S. aureus SBSA2, peptide + Mupirocin): 2
Mupirocin Comb. MIC (E. faecalis): 100 mg/L
Peptide Comb. MIC (E. faecalis): >128 mg/L
FIC (E. faecalis): 2
Mupirocin Comb. MIC (P. aeruginosa; P. aeruginosa PA3): >100 mg/L
Peptide Comb. MIC (P. aeruginosa; P. aeruginosa PA3): >128 mg/L
FIC (P. aeruginosa; [2]): 2
Mupirocin Comb. MIC (E. coli; E. coli SBECO1): 30 mg/L
Peptide Comb. MIC (E. coli; E. coli SBECO1): 8 mg/L
FIC (E. coli; E. coli SBECO1): 0.43
Mupirocin Comb. MIC (S. marcescens; S. marcescens SBSM2): >100 mg/L
Peptide Comb. MIC (S. marcescens; S. marcescens SBSM2): >128 mg/L
FIC (S. marcescens; S. marcescens SBSM2): 2

K R R W V W W V W R L I [MBI 11F4CNR]
MIC (bacteria; S. epidermidis SE010): 8 mg/L

W R I W K P K W R L P K W [MBI 11D18CN]
Ciprofloxacin Comb. MIC (S. aureus; S. aureus SA10): 32 mg/L
Peptide Comb MIC (S. aureus; S. aureus SA10): 2 mg/L
FIC (S. aureus; S. aureus SA10, peptide + Ciprofloxacin): 2.00
Peptide MIC (S. aureus; S. aureus SA10): 2 mg/L
Ciprofloxacin Comb. MIC (S. aureus; S. aureus SA14): 8 mg/L
Peptide Comb MIC (S. aureus; S. aureus SA14): 4 mg/L
FIC (S. aureus; S. aureus SA14, peptide + Ciprofloxacin): 1.00
Peptide MIC (S. aureus; S. aureus SA14): 8 mg/L
Mupirocin Comb. MIC (S. aureus; S. aureus SBSA4): 0.1 mg/L
Peptide Comb. MIC (S. aureus; S. aureus SBSA4): 2 mg/L
FIC (S. aureus; [3]): 0.13
Peptide MIC (S. aureus; S. aureus SBSA4): 16 mg/L
Mupirocin Comb. MIC (P. vulgaris): 3 mg/L
Peptide Comb. MIC (P. vulgaris): 4 mg/L
FIC (P. vulgaris): 1.13
Peptide MIC (P. vulgaris): 32 mg/L
Mupirocin Comb. MIC (E. faecalis): 100 mg/L
Peptide Comb. MIC (E. faecalis): 16 mg/L
FIC (E. faecalis): 2
Peptide MIC (E. faecalis): 16 mg/L
Mupirocin Comb. MIC (P. aeruginosa; P. aeruginosa PA2): 30 mg/L
Peptide Comb. MIC (P. aeruginosa; P. aeruginosa PA2): 64 mg/L
FIC (P. aeruginosa; P. aeruginosa PA2, peptide + Mupirocin): 0.53
Peptide MIC (P. aeruginosa; P. aeruginosa PA2, peptide alone): 128 mg/L
Ciprofloxacin Comb. MIC (P. aeruginosa; P. aeruginosa PA24, MIC of Ciprofloxacin in combination with the peptide): 4 mg/L
Mupirocin Comb. MIC (P. aeruginosa; P. aeruginosa PA24): >100 mg/L
Peptide Comb MIC (P. aeruginosa; P. aeruginosa PA24, MIC of peptide in combination with Ciprofloxacin): 16 mg/L
Peptide Comb. MIC (P. aeruginosa; P. aeruginosa PA24): >128 mg/L
FIC (P. aeruginosa; P. aeruginosa PA24, peptide + Ciprofloxacin): 0.31
FIC (P. aeruginosa; P. aeruginosa PA24, peptide + Mupirocin): 2
Peptide MIC (P. aeruginosa; P. aeruginosa PA24, peptide alone (Ciprofloxacin table)): >128 mg/L
Peptide MIC (P. aeruginosa; P. aeruginosa PA24, peptide alone (Mupirocin table)): >128 mg/L
Mupirocin Comb. MIC (E. coli; E. coli SBECO2): 10 mg/L
Peptide Comb. MIC (E. coli; E. coli SBECO2): 1 mg/L
FIC (E. coli; E. coli SBECO2): 0.07
Peptide MIC (E. coli; E. coli SBECO2): 16 mg/L
Mupirocin Comb. MIC (S. marcescens; S. marcescens SBSM1): 30 mg/L
Peptide Comb. MIC (S. marcescens; S. marcescens SBSM1): 64 mg/L
FIC (S. marcescens; S. marcescens SBSM1): 0.28
Peptide MIC (S. marcescens; S. marcescens SBSM1): >128 mg/L
